{"source": "patent US20050186168A1", "about": "“Skin remodeling and regenerative compositions containing elastin peptide ligands having the amino acid sequence (XGXXPG)n” (priority 2004, published 2005)", "origin": "cited, not measured here", "key": {"[1]": {"tested_on": "pro-MMP-1", "settings": "for concentration sufficient to stimulate pro-MMP-1 production: fibroblast culture, comparable stimulation levels"}, "[2]": {"tested_on": "pro-MMP-3"}, "[3]": {"tested_on": "Human lymphocytes", "settings": "1 microgram/ml"}, "[4]": {"tested_on": "elastin-laminin receptor (ELR)", "settings": "5 micrograms/ml (140 micromolar), 10th and 15th passage"}, "[5]": {"tested_on": "human skin fibroblasts"}, "[6]": {"tested_on": "MMP-1 mRNA", "settings": "after 24 h of culture; standardized with 36B4 cDNA probe"}, "[7]": {"settings": "1 mM lactose in fibroblast culture medium"}}}
{"molecule": "OC[C@H]1O[C@@H](O[C@H]2[C@H](O)[C@@H](O)C(O)O[C@@H]2CO)[C@H](O)[C@@H](O)[C@H]1O", "note": "(stereo partly shown) [lactose]", "values": [{"measurement": "inhibition of VGVAPG-stimulating effect on pro-MMP-1 production", "setting": "[1]; [7]", "result": 80, "unit": "%"}, {"measurement": "inhibition of kE-stimulated pro-MMP-1 production", "setting": "[1]; [7]", "result": 35, "unit": "%"}, {"measurement": "effect on pro-MMP-1 accumulation stimulated by interleukin-1", "setting": "[1]; lactose alone", "result": "no effect"}, {"measurement": "accumulation of pro-MMP-3 in the medium", "setting": "[2]; cells treated with 1 mM lactose", "result": "decreased"}, {"measurement": "elastin peptide-induced cell death", "setting": "[3]", "result": "inhibited"}]}
{"molecule": "OC[C@H]1O[C@H](OCC2O[C@@H](O)[C@H](O)[C@@H](O)[C@@H]2O)[C@H](O)[C@@H](O)[C@H]1O", "note": "(stereo partly shown) [melibiose]", "values": [{"measurement": "fibronectin biosynthesis", "setting": "[4]", "result": "decreased"}, {"measurement": "total protein biosynthesis", "setting": "[4]", "result": "decreased"}, {"measurement": "incorporation of the tracer in GAGs", "setting": "[5]", "result": "increased"}, {"measurement": "post-synthetic degradation of hyaluronan", "setting": "[5]", "result": "inhibited"}, {"measurement": "elastin peptide-induced cell death", "setting": "[3]", "result": "inhibited"}]}
{"molecule": "GVAPGV", "values": [{"measurement": "efficiency of pro-MMP-1 induction relative to VGVAPG (more efficient)", "setting": "[1]; compared with VGVAPG", "result": 20, "unit": "%"}]}
{"molecule": "LGTIPG", "values": [{"measurement": "stimulation of MMP-1 expression", "setting": "[1]; laminin-derived peptide", "result": "Stimulation of MMP-1 expression could also be achieved"}]}
{"molecule": "VGVAPG", "values": [{"measurement": "pro-MMP-1 induction level", "setting": "[1]", "result": 1, "unit": "ng/h/10^5 fibroblasts"}, {"measurement": "concentration sufficient to stimulate pro-MMP-1 production", "setting": "[1]", "result": 200, "unit": "µg/mL"}, {"measurement": "MMP-1 mRNA levels increased", "setting": "[6]", "result": 8, "unit": "fold"}, {"measurement": "expression of proteins reacting with anti-MMP-3 antibody (pro-MMP-3)", "setting": "[2]; Western blotting, stimulated fibroblasts", "result": "significantly up-regulated"}]}
{"molecule": "interleukin-1 receptor antagonist: interleukin-1 receptor antagonist", "values": [{"measurement": "blocking of elastin peptide-dependent induction of pro-MMP-1", "setting": "[1]", "result": "could not be blocked"}]}
{"molecule": "Elastin: extracellular matrix protein elastin (protein, UniProt P15502 27-786, looked up) Elastin: GGVPGAIPGGVPGGVFYPGAGLGALGGGALGPGGKPLKPVPGGLAGAGLGAGLGAFPAVTFPGALVPGGVADAAAAYKAAKAGAGLGGVPGVGGLGVSAGAVVPQPGAGVKPGKVPGVGLPGVYPGGVLPGARFPGVGVLPGVPTGAGVKPKAPGVGGAFAGIPGVGPFGGPQPGVPLGYPIKAPKLPGGYGLPYTTGKLPYGYGPGGVAGAAGKAGYPTGTGVGPQAAAAAAAKAAAKFGAGAAGVLPGVGGAGVPGVPGAIPGIGGIAGVGTPAAAAAAAAAAKAAKYGAAAGLVPGGPGFGPGVVGVPGAGVPGVGVPGAGIPVVPGAGIPGAAVPGVVSPEAAAKAAAKAAKYGARPGVGVGGIPTYGVGAGGFPGFGVGVGGIPGVAGVPGVGGVPGVGGVPGVGISPEAQAAAAAKAAKYGAAGAGVLGGLVPGAPGAVPGVPGTGGVPGVGTPAAAAAKAAAKAAQFGLVPGVGVAPGVGVAPGVGVAPGVGLAPGVGVAPGVGVAPGVGVAPGIGPGGVAAAAKSAAKVAAKAQLRAAAGLGAGIPGLGVGVGVPGLGVGAGVPGLGVGAGVPGFGAGADEGVRRSLSPELREGDPSSSQHLPSTPSSPRVPGALAAAKAAKYGAAVPGVLGGLGALGGVGIPGGVVGAGPAAAAAAAKAAAKAAQFGLVGAAGLGGLGVGGLGVPGVGGLGGIPPAAAAKAAKYGAAGLGGVLGGAGQFPLGGVAARPGFGLSPIFPGGACLGKACGRKRK", "values": [{"measurement": "concentration sufficient to stimulate pro-MMP-1 production", "setting": "[1]", "result": 50, "unit": "µg/mL"}]}
{"molecule": "tropoelastin: the soluble precursor of elastin (protein, UniProt P15502 27-786, looked up) Elastin: GGVPGAIPGGVPGGVFYPGAGLGALGGGALGPGGKPLKPVPGGLAGAGLGAGLGAFPAVTFPGALVPGGVADAAAAYKAAKAGAGLGGVPGVGGLGVSAGAVVPQPGAGVKPGKVPGVGLPGVYPGGVLPGARFPGVGVLPGVPTGAGVKPKAPGVGGAFAGIPGVGPFGGPQPGVPLGYPIKAPKLPGGYGLPYTTGKLPYGYGPGGVAGAAGKAGYPTGTGVGPQAAAAAAAKAAAKFGAGAAGVLPGVGGAGVPGVPGAIPGIGGIAGVGTPAAAAAAAAAAKAAKYGAAAGLVPGGPGFGPGVVGVPGAGVPGVGVPGAGIPVVPGAGIPGAAVPGVVSPEAAAKAAAKAAKYGARPGVGVGGIPTYGVGAGGFPGFGVGVGGIPGVAGVPGVGGVPGVGGVPGVGISPEAQAAAAAKAAKYGAAGAGVLGGLVPGAPGAVPGVPGTGGVPGVGTPAAAAAKAAAKAAQFGLVPGVGVAPGVGVAPGVGVAPGVGLAPGVGVAPGVGVAPGVGVAPGIGPGGVAAAAKSAAKVAAKAQLRAAAGLGAGIPGLGVGVGVPGLGVGAGVPGLGVGAGVPGFGAGADEGVRRSLSPELREGDPSSSQHLPSTPSSPRVPGALAAAKAAKYGAAVPGVLGGLGALGGVGIPGGVVGAGPAAAAAAAKAAAKAAQFGLVGAAGLGGLGVGGLGVPGVGGLGGIPPAAAAKAAKYGAAGLGGVLGGAGQFPLGGVAARPGFGLSPIFPGGACLGKACGRKRK", "values": [{"measurement": "concentration sufficient to stimulate pro-MMP-1 production", "setting": "[1]", "result": 50, "unit": "µg/mL"}]}
